This is an account of results in patent US8143282B2, “Heterocyclic compounds” (S*BIO Pte Ltd., priority 2005, dated 2012).

One data set relates to Colo205 cells. The data set can be described thus: Cell-based proliferation assay for GI50 (CyQUANT), Colo205. To be noted: Homo sapiens, COLO 205, 96 h treatment, read-out: Cellular or Growth Inhibition Activity in Colo205 cells, GI50. In short, it runs like this: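 Cells were seeded at 1000 (PC3), 5000 (Colo205), 6000 (HCT116) or 4000 (HEP3B) per well and left 24 h at 37° C. Compound treatment lasted 96 h. Growth was read by CyQUANT, and GI50 (50% growth inhibition) came from dose-response curves.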

Another data set concerns the target T1, HDAC1 enzyme (Homo sapiens, UniProt Q13547).
T1 construct: Amplification of human HDAC1 coding region from this cDNA library was cloned separately into the baculovirus expression pDEST20 vector; made in house; host or cells: SF9 insect cells, pDEST20-HDAC1 baculovirus
Briefly: In vitro HDAC assay for determination of IC50 values (BIOMOL fluorescent-based HDAC activity assay). It counts as biochemical. In outline: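 Recombinant GST-HDAC1, cloned from SW620 cDNA and expressed in Sf9 cells, tested in a fluorogenic Fluor de Lys deacetylase assay. Developer was added for 10 min and fluorescence read at 360/460 nm. IC50 came from concentration series.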

The nature of data set [1]: Measurement of microsomal stability. It counts as in vitro ADME. To be noted: pooled human liver microsomes, pH 7.4; human liver microsome, 5 μM test compound, 1.0 mg/ml microsomal protein. On the procedure:
Metabolic stability measurements in the in vitro using liver microsomes aids in the prediction of the in vivo hepatic clearance and the compound stability towards phase I biotransformation reactions mediated by P450 isozymes.
Pooled human liver microsome (HLM was purchased from BD Gentest (BD BioSciences). The incubations consisted of test compound (5 μM) or control compound (Verapamil), NADPH-generating system solution A (25 mM NADP^+, 66 mM glucose-6-phosphate, 66 mM MgCl2 in H2O), NADPH-generating system solution B (40 U/ml glucose-6-phosphate dehydrogenase in 5 mM sodium citrate) and 1.0 mg/ml microsomal protein, respectively, in 100 mM potassium phosphate buffer (pH 7.4). Samples were incubated for 0, 5, 15, 30, 45, 60 min. Reaction was terminated with ice-cold 80% acetonitrile and 20% DMSO. Samples were subsequently centrifuged at 4° C. for 15 min at 2,000 rpm. 100 μL of the supernatant was transferred to the LC-MS Plate for analysis. Before quantitative analysis, the compound was tuned in LC/MS machine to get the optimized MS condition. Liquid chromatography was performed on a Luna C18 column (Phenomenex U.S.A, Torrance, Calif.) (2×50 mm, 5 μM). % of the compound remaining (by area) at each time point is calculated with respect to time 0 min. Plot % remaining against time (min) to obtain the curve and use the Prism software to obtain the t1/2.
In general terms: Liver microsomes are vesicles of endoplasmic reticulum, rich in cytochrome P450 enzymes.

T1 sequence (Q13547 whole entry): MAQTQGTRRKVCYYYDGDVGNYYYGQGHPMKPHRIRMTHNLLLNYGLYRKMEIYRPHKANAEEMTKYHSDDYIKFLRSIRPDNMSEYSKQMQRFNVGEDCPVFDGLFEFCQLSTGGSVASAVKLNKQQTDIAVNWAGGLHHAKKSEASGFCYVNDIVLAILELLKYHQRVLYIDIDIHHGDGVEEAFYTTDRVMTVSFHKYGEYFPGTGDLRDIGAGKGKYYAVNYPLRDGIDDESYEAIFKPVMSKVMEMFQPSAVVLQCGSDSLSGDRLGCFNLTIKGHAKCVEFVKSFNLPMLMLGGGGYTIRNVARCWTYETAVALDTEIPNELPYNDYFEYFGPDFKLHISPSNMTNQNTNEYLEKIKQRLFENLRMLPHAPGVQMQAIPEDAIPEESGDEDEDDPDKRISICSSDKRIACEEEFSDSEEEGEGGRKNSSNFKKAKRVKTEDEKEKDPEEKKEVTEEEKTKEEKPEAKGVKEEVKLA

In general, GI50 refers to the concentration at which growth is held to half of that of the control. Broadly, the IC50 is the concentration that inhibits the measured activity by half. Lower therefore signals greater potency in that assay. One may read the half-life as how long it takes for the measured level to halve. As for `CC(C)c1nc2cc(/C=C/C(=O)NO)ccc2n1CC(C)(C)CN(C)C` [Compound 2, 3-[1-(3-Dimethylamino-2,2-dimethyl-propyl)-2-isopropyl-1H-benzoimidazol-5-yl]-N-hydroxy-acrylamide], the 50% growth inhibitory concentration (GI50) in the data set on Colo205 cells came to 2120 nM. This molecule also displayed an IC50 on HDAC1 enzyme of 380 nM. In data set [1], this molecule yielded a half-life at 5 μM of more than 30 min.

`C=CCCc1nc2cc(/C=C/C(=O)NO)ccc2n1CCN(CC)CC` [Compound 11, 3-[2-But-3-enyl-1-(2-diethylamino-ethyl)-1H-benzoimidazol-5-yl]-N-hydroxy-acrylamide]: in the data set with Colo205 cells, the GI50 came to 480 nM. The molecule also returned a half-inhibitory concentration (IC50) on HDAC1 enzyme of 70 nM. In data set [1], this molecule gave a half-life at 5 μM of more than 30 min.

Take `CCN(CC)CCn1c(CCCCCC#N)nc2cc(/C=C/C(=O)NO)ccc21` [Compound 110, 3-[2-(5-Cyano-pentyl)-1-(2-diethylamino-ethyl)-1H-benzoimidazol-5-yl]-N-hydroxy-acrylamide]: the 50% growth inhibitory concentration (GI50) in the data set with Colo205 cells was determined as 1740 nM. Besides, the half-maximal inhibitory concentration (IC50) against HDAC1 enzyme turned out to be 44 nM.

For the molecule `CCCN(CC)CCn1cnc2cc(/C=C/C(=O)NO)ccc21` [Compound 112, 3-{1-[2-(Ethyl-propyl-amino)-ethyl]-1H-benzoimidazol-5-yl}-N-hydroxy-acrylamide], the concentration for 50% growth inhibition (GI50) with Colo205 cells is 880 nM. This molecule came in with an IC50 against HDAC1 enzyme of 120 nM.

For `CCCC(C)CN(CCn1cnc2cc(/C=C/C(=O)NO)ccc21)C(C)C` (centres unmarked) [Compound 113, N-Hydroxy-3-(1-{2-[isopropyl-(2-methyl-pentyl)-amino]-ethyl}-1H-benzoimidazol-5-yl)-acrylamide], in the data set on Colo205 cells, the GI50 worked out at 610 nM. The 50% inhibitory concentration (IC50) against HDAC1 enzyme worked out at 16 nM.

Take `CC(C)N(CCCC(F)(F)F)CCn1cnc2cc(/C=C/C(=O)NO)ccc21` [Compound 114, (E)-N-hydroxy-3-(1-(2-(isopropyl(4,4,4-trifluorobutyl)amino)ethyl)-1H-benzo[d]imidazol-5-yl)acrylamide]: the GI50 in the data set on Colo205 cells is 720 nM. The same molecule gave an IC50 on HDAC1 enzyme of 63 nM.

Turning to `CCCCCCN(CC)CCn1c(C)nc2cc(/C=C/C(=O)NO)ccc21` [Compound 116, 3-{1-[2-(Ethyl-hexyl-amino)-ethyl]-2-methyl-1H-benzoimidazol-5-yl}-N-hydroxy-acrylamide], in the data set on Colo205 cells, the GI50 came to 700 nM. On HDAC1 enzyme, this molecule yielded a half-maximal inhibitory concentration (IC50) of 100 nM.

With `CCCCN(CC)CCn1c(C(F)(F)F)nc2cc(/C=C/C(=O)NO)ccc21` [Compound 117, 3-{1-[2-(Butyl-ethyl-amino)-ethyl]-2-trifluoromethyl-1H-benzoimidazol-5-yl}-N-hydroxy-acrylamide], the GI50 in the data set on Colo205 cells is 1800 nM. The IC50 against HDAC1 enzyme was determined as 190 nM.

Turning to `CCCCCCN(CC)CCn1c(C(F)(F)F)nc2cc(/C=C/C(=O)NO)ccc21` [Compound 118, 3-{1-[2-(Ethyl-hexyl-amino)-ethyl]-2-trifluoromethyl-1H-benzoimidazol-5-yl}-N-hydroxy-acrylamide], the GI50 with Colo205 cells amounted to 1880 nM. The same molecule yielded a half-inhibitory concentration (IC50) against HDAC1 enzyme of 480 nM.

For the molecule `CCCCN(CCCC)CCn1c(CCC)nc2cc(/C=C/C(=O)NO)ccc21` [Compound 119, (E)-3-(1-(2-(dibutylamino)ethyl)-2-propyl-1H-benzo[d]imidazol-5-yl)-N-hydroxyacrylamide], in the data set with Colo205 cells, the GI50 was 770 nM. Half-maximal inhibition at HDAC1 enzyme (IC50) required 180 nM.

As for `CCCN(CCC)CCn1cnc2cc(/C=C/C(=O)NO)ccc21` [Compound 120, 3-[1-(2-Dipropylamino-ethyl)-1H-benzoimidazol-5-yl]-N-hydroxy-acrylamide], in the data set on Colo205 cells, the GI50 is 490 nM. The IC50 against HDAC1 enzyme was 110 nM.

For `CC(C)CCN(CCn1cnc2cc(/C=C/C(=O)NO)ccc21)C(C)C` [Compound 121, N-Hydroxy-3-(1-{2-[isopropyl-(3-methyl-butyl)-amino]-ethyl}-1H-benzoimidazol-5-yl)-acrylamide], in the data set on Colo205 cells, the GI50 stood at 490 nM. On HDAC1 enzyme, this molecule came in with a half-inhibitory concentration (IC50) of 79 nM.

For `CN(CCn1cnc2cc(/C=C/C(=O)NO)ccc21)CCC(C)(C)C` [Compound 122, 3-(1-{2-[(3,3-Dimethyl-butyl)-methyl-amino]-ethyl}-1H-benzoimidazol-5-yl)-N-hydroxy-acrylamide], the concentration for 50% growth inhibition (GI50) in the data set with Colo205 cells was determined as 150 nM. This molecule also registered a half-inhibitory concentration (IC50) against HDAC1 enzyme of 37 nM.

On to `CCC(CC)CN(C)CCn1cnc2cc(/C=C/C(=O)NO)ccc21` [Compound 123, 3-(1-{2-[(2-Ethyl-butyl)-methyl-amino]-ethyl}-1H-benzoimidazol-5-yl)-N-hydroxy-acrylamide], for which the GI50 with Colo205 cells was 150 nM. The molecule also registered an IC50 against HDAC1 enzyme of 27 nM.

For the molecule `CC(C)(C)CCN(CCn1cnc2cc(/C=C/C(=O)NO)ccc21)CCC(C)(C)C` [Compound 124, (E)-3-(1-(2-(bis(3,3-dimethylbutyl)amino)ethyl)-1H-benzo[d]imidazol-5-yl)-N-hydroxyacrylamide], the GI50 in the data set on Colo205 cells is 540 nM. At HDAC1 enzyme, this molecule gave an IC50 of 85 nM.

`CC(C)CN(CCn1cnc2cc(/C=C/C(=O)NO)ccc21)CC(C)C` [Compound 125, (E)-3-(1-(2-(diisobutylamino)ethyl)-1H-benzo[d]imidazol-5-yl)-N-hydroxyacrylamide]: in the data set with Colo205 cells, the GI50 turned out to be 680 nM. For the same molecule, at HDAC1 enzyme, it took 160 nM to reach half-maximal inhibition (IC50).

`CC(C)(C)CCNCCn1cnc2cc(/C=C/C(=O)NO)ccc21` [Compound 126, 3-{1-[2-(3,3-Dimethyl-butylamino)-ethyl]-1H-benzoimidazol-5-yl}-N-hydroxy-acrylamide]: the GI50 in the data set on Colo205 cells turned out to be 420 nM. For the same molecule, the IC50 against HDAC1 enzyme is 42 nM.

Take `C=CCCCN(C)CCn1cnc2cc(/C=C/C(=O)NO)ccc21` [Compound 127, N-Hydroxy-3-{1-[2-(methyl-pent-4-enyl-amino)-ethyl]-1H-benzoimidazol-5-yl}-acrylamide]: the GI50 in the data set with Colo205 cells was 340 nM. Also, at HDAC1 enzyme, it took 78 nM to reach half-maximal inhibition (IC50).

Regarding `CCCN(CCn1cnc2cc(/C=C/C(=O)NO)ccc21)CCC(C)(C)C` [Compound 128, 3-(1-{2-[(3,3-Dimethyl-butyl)-propyl-amino]-ethyl}-1H-benzoimidazol-5-yl)-N-hydroxy-acrylamide], the 50% growth inhibitory concentration (GI50) in the data set on Colo205 cells stood at 140 nM. The same molecule came in with a 50% inhibitory concentration (IC50) on HDAC1 enzyme of 31 nM.

In the case of `CSc1nc2cc(/C=C/C(=O)NO)ccc2n1CC(C)(C)CN(C)C` [Compound 129, 3-[1-(3-Dimethylamino-2,2-dimethyl-propyl)-2-methylsulfanyl-1H-benzoimidazol-5-yl]-N-hydroxy-acrylamide], the 50% growth inhibitory concentration (GI50) in the data set with Colo205 cells came to 3900 nM. Also, the midpoint of inhibition against HDAC1 enzyme, the IC50, lay at 770 nM.

In the case of `CC(C)(C)CCNCCn1c(CC(C)(C)C)nc2cc(/C=C/C(=O)NO)ccc21` [Compound 131, 3-[1-[2-(3,3-Dimethyl-butylamino)-ethyl]-2-(2,2-dimethyl-propyl)-1H-benzoimidazol-5-yl]-N-hydroxy-acrylamide], the GI50 in the data set with Colo205 cells came out at 330 nM. Besides, the midpoint of inhibition at HDAC1 enzyme, the IC50, lay at 66 nM.

With `CC(C)(C)CNCCn1cnc2cc(/C=C/C(=O)NO)ccc21` [Compound 133, 3-{1-[2-(2,2-Dimethyl-propylamino)-ethyl]-1H-benzoimidazol-5-yl}-N-hydroxy-acrylamide], the GI50 with Colo205 cells came out at 560 nM. Further, the IC50 against HDAC1 enzyme is 72 nM.

Regarding `CCCN(CCn1cnc2cc(/C=C/C(=O)NO)ccc21)CC(C)(C)C` [Compound 134, 3-(1-{2-[(2,2-Dimethyl-propyl)-propyl-amino]-ethyl}-1H-benzoimidazol-5-yl)-N-hydroxy-acrylamide], the GI50 in the data set with Colo205 cells is 2300 nM. Also, at HDAC1 enzyme, the concentration for half-maximal inhibition (IC50) worked out at 220 nM.

For `CCc1nc2cc(/C=C/C(=O)NO)ccc2n1CCNCCC(C)(C)C` [Compound 135, 3-{1-[2-(3,3-Dimethyl-butylamino)-ethyl]-2-ethyl-1H-benzoimidazol-5-yl}-N-hydroxy-acrylamide], the GI50 in the data set with Colo205 cells worked out at 260 nM. The molecule also gave an IC50 against HDAC1 enzyme of 74 nM.

On to `CCCc1nc2cc(/C=C/C(=O)NO)ccc2n1CCN(C)CCC(C)(C)C` [Compound 136, 3-(1-{2-[(3,3-Dimethyl-butyl)-methyl-amino]-ethyl}-2-propyl-1H-benzoimidazol-5-yl)-N-hydroxy-acrylamide], for which, in the data set on Colo205 cells, the GI50 is 390 nM. Further, the 50% inhibitory concentration (IC50) at HDAC1 enzyme came to 53 nM.

As to `CC(C)(C)CCN(CCn1cnc2cc(/C=C/C(=O)NO)ccc21)CC(F)(F)F` [Compound 137, 3-(1-{2-[(3,3-Dimethyl-butyl)-(2,2,2-trifluoro-ethyl)-amino]-ethyl}-1H-benzoimidazol-5-yl)-N-hydroxy-acrylamide], the concentration for 50% growth inhibition (GI50) in the data set with Colo205 cells turned out to be 1970 nM. Further, the concentration for half-maximal inhibition (IC50) at HDAC1 enzyme worked out at 93 nM.

With `CCCCN(CCn1cnc2cc(/C=C/C(=O)NO)ccc21)CC(F)(F)F` [Compound 138, 3-(1-{2-[Butyl-(2,2,2-trifluoro-ethyl)-amino]-ethyl}-1H-benzoimidazol-5-yl)-N-hydroxy-acrylamide], the GI50 in the data set on Colo205 cells turned out to be 1960 nM. The molecule further registered an IC50 against HDAC1 enzyme of 100 nM.
